This assay deals with T1, Bcl-2 protein (Recombinant Human Bcl-2 Protein) (Homo sapiens, UniProt P10415).
T1 construct: purchased Novus NBP2-34889
In words: Binding evaluation of mixture library compounds to Bcl-2 using AS-MS (affinity selection mass spectrometry). The note with it: for ASMS ratio (%) n = 1 / ASMS ratio (%) n = 2: ASMS Ratio(%)=(A−C)/B×100; for ASMS ratio (%) n = 1: replicate n = 1; for ASMS ratio (%) n = 2: replicate n = 2. The gist of the method:
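Pooled library of ~1200 compounds ([…] each, final) incubated with recombinant human Bcl-2 (20 μM final) in Tris-HCl pH 7.4, NaCl, Tween-20, DTT buffer, dark, 23° C., 1 h. Bound fraction recovered by SEC spin column, organic extraction, reversed-phase LC/MS. ASMS Ratio (%) = (A−C)/B×100 versus protein-free standard and SEC blank.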

Where [1] appears, read: AS-MS, mixture of 1200 compounds, Bcl-2.
Where [2] appears, read: AS-MS on the mixture of 1200 library compounds.

T1 sequence (P10415 whole entry): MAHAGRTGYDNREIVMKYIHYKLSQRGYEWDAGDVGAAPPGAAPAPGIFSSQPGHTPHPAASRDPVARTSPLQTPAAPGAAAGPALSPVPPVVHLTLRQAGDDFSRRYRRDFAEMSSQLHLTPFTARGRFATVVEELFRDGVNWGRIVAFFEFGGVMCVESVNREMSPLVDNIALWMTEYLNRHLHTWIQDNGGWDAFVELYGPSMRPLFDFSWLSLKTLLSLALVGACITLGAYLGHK

With `CCOc1cncc(-c2ccccc2CN2CCN(c3ccc(C(=O)NCC(F)(F)F)nn3)CC2)c1` [B1K072-01, 6-[4-[[2-(5-Ethoxypyridin-3-yl)phenyl]methyl]piperazin-1-yl]-N-(2,2,2-trifluoroethyl)pyridazine-3-carboxamide], under setting [1], the “ASMS ratio (%) n = 1” value is on record as −0.6% and the “ASMS ratio (%) n = 2” value stood at 1.7%.
As for `CCOc1cncc(-c2ccc(CN3CCN(c4ccc(C(=O)N(CC)CC)nn4)CC3)c3ccccc23)c1` [B4J092-01, 6-[4-[[4-(5-Ethoxypyridin-3-yl)naphthalen-1-yl]methyl]piperazin-1-yl]-N,N-diethylpyridazine-3-carboxamide], where the note is “AS-MS, mixture library, Bcl-2”, the “ASMS ratio (%) n = 1” value is on record as −1.4% and the “ASMS ratio (%) n = 2” value is 0.3%.
With `CCCNC(=O)c1ccc(N2CCN(Cc3cc(OC(C)C)cc(-c4cccc(OCC)c4)c3)CC2)cc1` [B1M015-01], under setting [1], the “ASMS ratio (%) n = 1” value is listed as −2.4% and the “ASMS ratio (%) n = 2” value is given as −3.0%.
Regarding `CCOc1cncc(-c2ccc(CN3CCN(c4ccc(C(=O)N(C)CC56CC7CC(CC(C7)C5)C6)nn4)CC3)c(OC)c2)c1` [B3A080-01, N-(1-Adamantylmethyl)-6-[4-[[4-(5-ethoxypyridin-3-yl)-2-methoxyphenyl]methyl]piperazin-1-yl]-N-methylpyridazine-3-carboxamide], under setting [2], the “ASMS ratio (%) n = 1” value is reported as 1.7% and the “ASMS ratio (%) n = 2” value is given as −1.8%.
As to `CCOc1cccc(-c2cnn(-c3cc(C(=O)N4CCN(c5ccc(C(=O)NS(=O)(=O)c6ccc(NCCSc7ccccc7)c([N+](=O)[O-])c6)cc5)CC4)cc(C(F)(F)F)c3)c2)c1` [B2Q043-01, 4-[4-[3-[4-(3-Ethoxyphenyl)pyrazol-1-yl]-5-(trifluoromethyl)benzoyl]piperazin-1-yl]-N-[3-nitro-4-(2-phenylsulfanylethylamino)phenyl]sulfonylbenzamide], where the note is “AS-MS, mixture library, Bcl-2”, the “ASMS ratio (%) n = 1” value worked out at 12.4% and the “ASMS ratio (%) n = 2” value was −13.4%.
On to `CCOc1cncc(-c2csc(CN3CCN(c4ccc(C(=O)Nc5ccc(OC)cc5)cc4)CC3)c2)c1` [B1O068-01, 4-[4-[[4-(5-Ethoxypyridin-3-yl)thiophen-2-yl]methyl]piperazin-1-yl]-N-(4-methoxyphenyl)benzamide], for which, under setting [2], the “ASMS ratio (%) n = 1” value was determined as 1.9% and the “ASMS ratio (%) n = 2” value is reported as −1.1%.
For the compound `CCOc1cncc(-c2cc(CN3CCN(c4ccc(C(=O)NCC(F)(F)F)nn4)CC3)cc(C(F)(F)F)c2)c1` [B1K088-01, 6-[4-[[3-(5-Ethoxypyridin-3-yl)-5-(trifluoromethyl)phenyl]methyl]piperazin-1-yl]-N-(2,2,2-trifluoroethyl)pyridazine-3-carboxamide], under setting [1], the “ASMS ratio (%) n = 1” value was 2.2% and the “ASMS ratio (%) n = 2” value is −0.2%.
With `CCOc1cncc(C#Cc2ccccc2C(=O)N2CCN(c3ccc(C(=O)N(C)CC45CC6CC(CC(C6)C4)C5)cc3)CC2)c1` [B3A030-01, N-(1-Adamantylmethyl)-4-[4-[2-[2-(5-ethoxypyridin-3-yl)ethynyl]benzoyl]piperazin-1-yl]-N-methylbenzamide], under setting [2], the “ASMS ratio (%) n = 1” value is 8.4% and the “ASMS ratio (%) n = 2” value is on record as −15.2%.
For the compound `CCOc1cncc(-c2ccc(CN3CCN(c4ccc(C(=O)NS(=O)(=O)CC56CC7CC(CC(C7)C5)C6)cc4)CC3)c(OC)c2)c1` [B2A054-01, N-(1-Adamantylmethylsulfonyl)-4-[4-[[4-(5-ethoxypyridin-3-yl)-2-methoxyphenyl]methyl]piperazin-1-yl]benzamide], under “AS-MS, mixture library, Bcl-2”, the “ASMS ratio (%) n = 1” value is given as 17.5% and the “ASMS ratio (%) n = 2” value was −0.9%.
For `CCOc1cncc(-c2ccc(C(C)N3CCN(c4ccc(C(=O)NS(C)(=O)=O)cc4)CC3)cc2)c1` (centres unmarked) [B2I098-01, 4-[4-[1-[4-(5-Ethoxypyridin-3-yl)phenyl]ethyl]piperazin-1-yl]-N-methylsulfonylbenzamide], the “ASMS ratio (%)” value amounted to 0.0% (n = 1) and 0.0% (n = 2).
As to `CCOc1cccc(C#Cc2cc(C(=O)N3CCN(c4ccc(C(=O)NCC(F)(F)F)nn4)CC3)cc(C(F)(F)F)c2)c1` [B1K019-01, 6-[4-[3-[2-(3-Ethoxyphenyl)ethynyl]-5-(trifluoromethyl)benzoyl]piperazin-1-yl]-N-(2,2,2-trifluoroethyl)pyridazine-3-carboxamide], under setting [1], the “ASMS ratio (%) n = 1” value came out at 0.0% and the “ASMS ratio (%) n = 2” value is 0.0%.
Regarding `CCOc1cccc(-c2ccc(C(C)N3CCN(c4ccc(C(=O)N(C)CC56CC7CC(CC(C7)C5)C6)cc4)CC3)c(F)c2)c1` (centres unmarked) [B3A099-01, N-(1-Adamantylmethyl)-4-[4-[1-[4-(3-ethoxyphenyl)-2-fluorophenyl]ethyl]piperazin-1-yl]-N-methylbenzamide], under setting [2], the “ASMS ratio (%) n = 1” value is listed as −2.6% and the “ASMS ratio (%) n = 2” value was determined as 25.2%.
In the case of `CCOc1cncc(-c2cc(C(=O)N3CCN(c4ccc(C(=O)N(CC)CC)nn4)CC3)cc(C(F)(F)F)c2)c1` [B4J018-01, 6-[4-[3-(5-Ethoxypyridin-3-yl)-5-(trifluoromethyl)benzoyl]piperazin-1-yl]-N,N-diethylpyridazine-3-carboxamide], under setting [2], the “ASMS ratio (%) n = 1” value is on record as −0.5% and the “ASMS ratio (%) n = 2” value is given as −1.7%.
Regarding `CCOc1cccc(-c2ccc(CN3CCN(c4ccc(C(=O)NCC(F)(F)F)cc4)CC3)c(OC)c2)c1` [B1K053-01], under setting [1], the “ASMS ratio (%) n = 1” value is reported as −0.5% and the “ASMS ratio (%) n = 2” value is recorded as −3.3%.
Regarding `CCOc1cccc(-c2ccccc2CCC(=O)N2CCN(c3ccc(C(=O)NS(=O)(=O)c4ccc(NCCSc5ccccc5)c(C(F)(F)F)c4)cc3)CC2)c1` [B2R033-01, 4-[4-[3-[2-(3-Ethoxyphenyl)phenyl]propanoyl]piperazin-1-yl]-N-[4-(2-phenylsulfanylethylamino)-3-(trifluoromethyl)phenyl]sulfonylbenzamide], the “ASMS ratio (%)” value is reported as 3.6% (n = 1) and −6.6% (n = 2).
For `CCOc1cccc(-c2ccc(CN3CCN(c4ccc(C(=O)NS(=O)(=O)C(C)(C)C)nn4)CC3)c(CC)c2)c1` [B2L075-01, N-tert-Butylsulfonyl-6-[4-[[4-(3-ethoxyphenyl)-2-ethylphenyl]methyl]piperazin-1-yl]pyridazine-3-carboxamide] the same measures were 0.0% and 33.9%.
Consider `CCOc1cncc(-c2cc(CN3CCN(c4ccc(C(=O)NS(=O)(=O)c5ccc(NCCSc6ccccc6)c(C(F)(F)F)c5)cc4)CC3)cc(OC(C)C)c2)c1` [B2R058-01, 4-[4-[[3-(5-Ethoxypyridin-3-yl)-5-propan-2-yloxyphenyl]methyl]piperazin-1-yl]-N-[4-(2-phenylsulfanylethylamino)-3-(trifluoromethyl)phenyl]sulfonylbenzamide], for which the “ASMS ratio (%)” value is given as 13.0% (n = 1) and 4.8% (n = 2).
Regarding “4-[4-[[3-(3-Ethoxyphenyl)-5-(trifluoromethoxy)phenyl]methyl]piperazin-1-yl]-N-propylbenzamide [B1M032-01]”, under setting [1], the “ASMS ratio (%) n = 1” value stood at 0.3% and the “ASMS ratio (%) n = 2” value is on record as 0.3%.
Take `CCOc1cccc(-c2ccc(CN3CCN(c4ccc(C(=O)NS(=O)(=O)c5ccc(NCCSc6ccccc6)c(C(F)(F)F)c5)nn4)CC3)c3ccccc23)c1` [B2R091-01, 6-[4-[[4-(3-Ethoxyphenyl)naphthalen-1-yl]methyl]piperazin-1-yl]-N-[4-(2-phenylsulfanylethylamino)-3-(trifluoromethyl)phenyl]sulfonylpyridazine-3-carboxamide]: the “ASMS ratio (%)” value (n = 1) was −3.5% and the “ASMS ratio (%)” value (n = 2) was 1.8%.
Take `CCOc1cncc(-c2ccccc2CN2CCN(c3ccc(C(=O)NS(=O)(=O)c4ccc(NCCSc5ccccc5)c(C(F)(F)F)c4)nn3)CC2)c1` [B2R072-01, 6-[4-[[2-(5-Ethoxypyridin-3-yl)phenyl]methyl]piperazin-1-yl]-N-[4-(2-phenylsulfanylethylamino)-3-(trifluoromethyl)phenyl]sulfonylpyridazine-3-carboxamide]: the “ASMS ratio (%)” value is, setting by setting: (n = 1) 21.4%; (n = 2) 11.4%.
Take `CCOc1cncc(-c2cc(OC)c(CN3CCN(c4ccc(C(=O)Nc5ccc(OC)cc5)cc4)CC3)c(OC)c2)c1` [B1O060-01, 4-[4-[[4-(5-Ethoxypyridin-3-yl)-2,6-dimethoxyphenyl]methyl]piperazin-1-yl]-N-(4-methoxyphenyl)benzamide]: under setting [2], the “ASMS ratio (%) n = 1” value worked out at 0.6% and the “ASMS ratio (%) n = 2” value is −1.8%.
For “4-[4-[3-tert-Butyl-5-(3-ethoxyphenyl)benzoyl]piperazin-1-yl]-N-propylbenzamide [B1M062-01]”, under setting [1], the “ASMS ratio (%) n = 1” value was 1.6% and the “ASMS ratio (%) n = 2” value was −1.7%.
For `CCOc1cccc(-c2cc(CN3CCN(c4ccc(C(=O)NCC(F)(F)F)nn4)CC3)cc(C(F)(F)F)c2)c1` [B1K087-01] the same measures were 1.8% and −0.1%.
On to “4-[4-[[4-(5-Ethoxypyridin-3-yl)-2,6-dimethoxyphenyl]methyl]piperazin-1-yl]-N-propylbenzamide [B1M022-01]”, for which, under setting [1], the “ASMS ratio (%) n = 1” value is reported as −13.6% and the “ASMS ratio (%) n = 2” value was 6.7%.
For the compound `CCOc1cncc(-c2ccc(C(C)N3CCN(c4ccc(C(=O)NS(=O)(=O)C(C)(C)C)cc4)CC3)c(F)c2)c1` (centres unmarked) [B2L100-01, N-tert-Butylsulfonyl-4-[4-[1-[4-(5-ethoxypyridin-3-yl)-2-fluorophenyl]ethyl]piperazin-1-yl]benzamide], the “ASMS ratio (%)” value was 0.0% (n = 1) and 0.0% (n = 2).
